Earlier results, collected in US20070142395A1, “Treatment of sexual dysfunction with 1-[3-[4-(3-chlorophenyl)-1-piperazinyl]propyl]-5-methoxy-3,4-dihydro-2(1H)-quinolone or salt thereof” (Vela Pharmaceuticals, Inc., priority 2005, published 2007).

Conditions: SSRI/SNRI antidepressant therapy; Montejo et al. 2001; cited from earlier work

Compound | incidence of sexual dysfunction as side effect [%]
CN(C)CCCC1(c2ccc(F)cc2)OCc2cc(C#N)ccc21 (centres unmarked) [citalopram] | 72.7
CNCCC(Oc1ccc(C(F)(F)F)cc1)c1ccccc1 (centres unmarked) [fluoxetine] | 57.7
Fc1ccc([C@@H]2CCNC[C@H]2COc2ccc3c(c2)OCO3)cc1 [paroxetine] | 70.7
CN[C@H]1CC[C@@H](c2ccc(Cl)c(Cl)c2)c2ccccc21 [sertraline] | 62.9
COc1ccc(C(CN(C)C)C2(O)CCCCC2)cc1 (centres unmarked) [venlafaxine] | 67.3
